Test results published in patent US4256832A, “Carcinogen and mutagen screening method and apparatus” (BioResearch Inc., priority 1978, dated 1981).

What was measured:
S. typhimurium TA 1535 = assay: Oxygen uptake of S. typhimurium TA 1535 cultures in minimal histidine medium, oxygen electrode (mutagen screening); assay type: cell-based, Salmonella typhimurium; settings: flasks 3 and 4
Text: In the device illustrated in FIG. 1, two conventional oxygen electrodes, 10, 11, of the Clark type are employed. […] Electrode 11, designated the test electrode, measures the respiration rate (O2 uptake) of the same fixed volume 13 and concentration of Ames test bacteria and media as the control electrode. In the second case, the media also contains the chemical to be evaluated. If the chemical is a carcinogen or mutagen, the O2 uptake of test electrode 11 will increase at a faster rate than that of the control. This occurs because the reversion rate, and thus the growth rate and O2 consumption rate will be higher in the test electrode 11 than in the control electrode 10. Conversely, if the chemical is not a carcinogen or a mutagen, the O2 uptake rates will be similar. Thus, by measuring the difference in O2 uptake rates between a control and a test electrode, the potential carcinogenicity and/or mutagenicity of a chemical can be evaluated. […]
The test organism, S. typhimurium TA 1535 is grown overnight, washed three times in phosphate buffer and resuspended to give OD of 0.8 (>10^8 per ml). […] At zero, four, and 32 hours, 1 ml of culture is added to 2 ml of aerated minimal glucose media in the test chamber of an oxygen electrode and the rate of oxygen uptake is measured.

S. typhimurium TA 1530 = settings: cited from earlier work
Saccharomyces cerevsiae = settings: cited from earlier work
[1] = tested on: oxidative phosphorylation; settings: cited from earlier work; for uncoupling: higher concentrations than 10^-9 M; for stimulation of respiration and ATP production: low concentrations (10^-9 M)

Nc1c2ccccc2nc2ccccc12 [9-amine acridine]
oxygen uptake, dependence on mutagen level (S. typhimurium TA 1535): dependent upon the level of the added known mutagen

O=C(O)[C@@H]1CCN1 [L-azetidine carboxylic acid]
toxicity to mutant form (S. typhimurium TA 1530; mutant form of S. typhimurium TA 1530): not toxic to its mutant form | toxicity to normal form (S. typhimurium TA 1530; normal form of S. typhimurium TA 1530): toxic to the normal form

NC(N)=NOCC[C@H](N)C(=O)O.O=S(=O)(O)O [cavanine sulfate]
toxicity to mutant form (Saccharomyces cerevsiae; mutant form of yeast): not to its mutant form | toxicity to normal form (Saccharomyces cerevsiae; normal form of yeast): toxic to the normal form

N[C@@H](Cc1cc(I)c(Oc2cc(I)c(O)c(I)c2)c(I)c1)C(=O)O [thyroxine]
uncoupling [1]: uncouple at higher concentrations | stimulation of respiration and ATP production [1]: stimulate respiration and ATP production

N[C@@H](Cc1cc(I)c(Oc2ccc(O)c(I)c2)c(I)c1)C(=O)O [triiodothyronine]
uncoupling [1]: uncouple at higher concentrations | stimulation of respiration and ATP production [1]: stimulate respiration and ATP production
